Reference: patent US20190364896A1, “SYNERGISTIC WEED CONTROL FROM APPLICATIONS OF PYRIDINE CARBOXYLIC ACID HERBICIDES AND ALS INHIBITORS” (Dow AgroSciences LLC, priority 2014, published 2019)
Several values for one entry are separate records, joined by “and”; a condition that tells them apart may be missing. Identical values can stand only once.

Columns and labels:
[1] = tested on: grain sorghum (Sorghum vulgare, SORVU); test: Postemergence herbicidal activity, greenhouse trial (visual injury 0-100%); type: in vivo
Procedure, shortened: (§1)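 Foliar track-sprayer application, 187 L/ha, 2–3 true-leaf plants; spray solution = acetone/DMSO 97:3 stock diluted into 1.5% v/v Agri-dex. Component (a) in g ae/ha, (b) in g ai/ha. Visual rating 0 (no injury)–100 (complete kill) at 20-22 d vs solvent blank.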

[2] = tested on: blackgrass (Alopecurus myosuroides, ALOMY); test: as above; type: in vivo
Procedure, shortened: as §1

Nc1c(F)c(-c2ccc3cc[nH]c3c2F)nc(C(=O)O)c1Cl [Compound 1]
% visual injury Obs ([1]; 5 g ae/ha): 10% and 0% | % visual injury Obs ([1]; 10 g ae/ha): 50% | % visual injury Obs ([1]; SORVU, Compound 1 5 g ae/ha): 0% and 10% | % visual injury Obs ([1]; SORVU, Compound 1 10 g ae/ha): 50% | % visual injury Obs ([2]; 5 g ae/ha): 0% | % visual injury Obs ([2]; 10 g ae/ha): 0% | % visual injury Obs ([2]; ALOMY, Compound 1 5 g ae/ha): 0% | % visual injury Obs ([2]; ALOMY, Compound 1 10 g ae/ha): 0%
